Assay results: patent US20240417410A1, “TRICYCLIC COMPOUNDS FOR THE TREATMENT OF CANCER” (Hoffmann-La Roche Inc., priority 2023, published 2024)

Key:
AGS cells (KRAS G12D) = experiment: Cell viability assay (Cell Counting Kit-8, 3-day); format: cell-based, human; conditions: Homo sapiens, 72 h, 72 hrs incubation
Summary of the method: (§1)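 IC50 derived by 4-parameter sigmoidal fit of CCK-8 signal (OD450−OD650, 2 h development) after 72 h compound exposure in 0.5% DMSO. Seeding density was 5,000 cells/well for NCI-H358 and 2,000 cells/well for AGS and SW620, plated overnight before dosing.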

[1] = system: NCI-H358 cells (KRAS G12C); experiment: Cell viability assay (Cell Counting Kit-8, 3-day); format: cell-based, human; conditions: Homo sapiens, NCI-H358, 72 h, NCI-H358, 72 hrs incubation
Summary of the method: as §1

SW620 cells (KRAS G12V) = experiment: Cell viability assay (Cell Counting Kit-8, 3-day); format: cell-based, human; conditions: Homo sapiens, SW-620; SW620, 72 hrs incubation
Summary of the method: as §1

KRAS G12C-BRAF complex = KRAS G12C-BRAF complex (Homo sapiens (Human), UniProt P01116+P62937, G12C); experiment: KRAS-BRAF with CYPA (500 nM) interaction assay (TR-FRET, Example 136); format: biochemical; conditions: KRAS G12C-BRAF disruption
[2] = system: phosphorylation of ERK, KRAS G12C in NCI-H358 cells; experiment: pERK inhibition assay; format: cell-based; conditions: Homo sapiens, NCI-H358, 4 h
Summary of the method: (§2)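 NCI-H358 (KRAS G12C), AGS (G12D) and SW620 (G12V) cells plated overnight, then treated with compound for 4 h in 0.5% DMSO. After fixing and methanol permeabilisation, phospho-ERK was detected by in-cell ELISA (HRP/TMB, OD450). IC50 from a 4-parameter sigmoidal fit.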

[3] = system: phosphorylation of ERK, KRAS G12D in AGS cells; experiment: pERK inhibition assay; format: cell-based; conditions: Homo sapiens, AGS, 4 h
Summary of the method: as §2

[4] = system: phosphorylation of ERK, KRAS G12V in SW620; experiment: pERK inhibition assay; format: cell-based; conditions: Homo sapiens, SW-620, 4 h, SW620 cells
Summary of the method: as §2

Chain of KRAS G12C-BRAF complex (P01116-2 other isoform, or with tags, fused parts or gaps G12C): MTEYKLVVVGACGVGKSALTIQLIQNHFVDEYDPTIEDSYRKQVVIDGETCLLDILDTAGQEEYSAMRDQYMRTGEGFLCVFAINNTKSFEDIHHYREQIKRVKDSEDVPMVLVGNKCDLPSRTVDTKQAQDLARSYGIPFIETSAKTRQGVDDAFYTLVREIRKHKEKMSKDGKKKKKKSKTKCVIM
Chain of KRAS G12C-BRAF complex (P62937 whole entry): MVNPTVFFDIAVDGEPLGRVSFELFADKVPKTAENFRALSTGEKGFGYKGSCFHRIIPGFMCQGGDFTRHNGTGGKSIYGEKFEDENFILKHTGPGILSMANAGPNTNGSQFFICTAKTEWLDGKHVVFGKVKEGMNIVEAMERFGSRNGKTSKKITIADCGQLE

CO[C@@H](C)c1ncc(N2CCOCC2)cc1-c1c2c3cc(cc4c3n1CCO4)-c1csc(n1)C[C@H](NC(=O)[C@H]1C[C@@H]1c1cccnc1)C(=O)N1CCC[C@H](N1)C(=O)OCC(C)(C)C2 (atropisomer, axis not shown; (M)) [Example 97, (1S,2S)-N-[(7S,13S)-(20M)-20-[2-[(1S)-1-methoxyethyl]-5-morpholino-3-pyridyl]-17,17-dimethyl-8,14-dioxo-15,24-dioxa-4-thia-9,21,30,31-tetrazahexacyclo[23.3.1.12.19,13 019,27 21,26,]hentriaconta-1 (28),2,5 (31), 19,25 (29),26-hexaen-7-yl]-2-(3-pyridyl)cyclopropanecarboxamide]
IC50 (AGS cells (KRAS G12D)): 2.6 nM | IC50 [1]: 1.9 nM | IC50 (SW620 cells (KRAS G12V)): 0.3 nM | IC50 (KRAS G12C-BRAF complex): 14.4 nM | IC50 [2]: 0.4 nM | IC50 [3]: 1.4 nM | IC50 [4]: 0.3 nM

CO[C@@H](C)c1ncc(N2CCN(CC(F)(F)F)CC2)cc1-c1c2c3cc(cc4c3n1CCO4)-c1csc(n1)C[C@H](NC(=O)[C@H]1C[C@@H]1c1cccnc1)C(=O)N1CCC[C@H](N1)C(=O)OCC(C)(C)C2 (atropisomer, axis not shown; (M)) [Example 98, (1S,2S)-N-[(7S,13S)-(20M)-20-[2-[(1S)-1-methoxyethyl]-5-[4-(2,2,2-trifluoroethyl)piperazin-1-yl]-3-pyridyl]-17,17-dimethyl-8,14-dioxo-15,24-dioxa-4-thia-9,21,30,31-2,5 9,13 19,27 21,26]hentriaconta-1 (28),2,5 (31),19,25 (29),26-hexaen-tetrazahexacyclo[23.3.1.1″>0.1″>7-yl]-2-(3-pyridyl)cyclopropanecarboxamide]
IC50 (AGS cells (KRAS G12D)): 8.1 nM | IC50 [1]: 4 nM | IC50 (SW620 cells (KRAS G12V)): 0.6 nM | IC50 (KRAS G12C-BRAF complex): 11.1 nM | IC50 [2]: 0.9 nM | IC50 [3]: 4.6 nM | IC50 [4]: 0.5 nM

CO[C@@H](C)c1ncc(N2CCN(C)CC2)cc1-c1c2c3cc(cc4c3n1CCC4)-c1csc(n1)C[C@H](NC(=O)[C@H]1C[C@@H]1c1cnccn1)C(=O)N1CCC[C@H](N1)C(=O)OCC(C)(C)C2 (atropisomer, axis not shown; (M)) [Example 99, (1S,2S)-N-[(7S,13S)-(20M)-20-[2-[(1S)-1-methoxyethyl]-5-(4-methylpiperazin-1-yl)-3-pyridyl]-17,17-dimethyl-8,14-dioxo-15-oxa-4-thia-9,21,30,31-tetrazahexacyclo[23.3.1.1^2,5.1^9,13.0^19,27.0^21,26]hentriaconta-1 (28),2,5 (31), 19,25 (29),26-hexaen-7-yl]-2-pyrazin-2-yl-cyclopropanecarboxamide]
IC50 (AGS cells (KRAS G12D)): 7.8 nM | IC50 [1]: 2.1 nM | IC50 (SW620 cells (KRAS G12V)): 0.4 nM | IC50 (KRAS G12C-BRAF complex): 12.6 nM | IC50 [2]: 0.5 nM | IC50 [3]: 1.9 nM | IC50 [4]: 0.4 nM

CO[C@@H](C)c1ncc(N2CCN(C)CC2)cc1-c1c2c3cc(cc4c3n1CCCO4)-c1csc(n1)C[C@H](NC(=O)[C@H]1[C@H](C)[C@@H]1C)C(=O)N1CCC[C@H](N1)C(=O)OCC(C)(C)C2 (atropisomer, axis not shown; (M)) [Example 100, (1r,2R,3S)-N-[(7S,13S)-(20M)-20-[2-[(1S)-1-methoxyethyl]-5-(4-methylpiperazin-1-yl)-3-pyridyl]-17,17-dimethyl-8,14-dioxo-15,25-dioxa-4-thia-9,21,31,32-tetrazahexacyclo[24.3.1.1^2,5.1^9,13.0^19,28.0^21,27]dotriaconta-1 (29),2,5 (32),19,26 (30),27-hexaen-7-yl]-2,3-dimethyl-cyclopropanecarboxamide]
IC50 (AGS cells (KRAS G12D)): 8.2 nM | IC50 [1]: 2.7 nM | IC50 (SW620 cells (KRAS G12V)): 0.7 nM | IC50 (KRAS G12C-BRAF complex): 33.1 nM | IC50 [2]: 1 nM | IC50 [3]: 4.1 nM | IC50 [4]: 0.7 nM

CO[C@@H](C)c1ncc(N2CCN3CCCC[C@@H]3C2)cc1-c1c2c3cc(cc4c3n1CCC4)-c1csc(n1)C[C@H](NC(=O)[C@H]1[C@H](C)[C@@H]1C)C(=O)N1CCC[C@H](N1)C(=O)OCC(C)(C)C2 (atropisomer, axis not shown; (M)) [Example 101, (1r,2S,3R)-N-[(7S,13S)-(20M)-20-[5-[(9αR)-1,3,4,6,7,8,9,9a-octahydropyrido[1,2-a]pyrazin-2-yl]-2-[(1S)-1-methoxyethyl]-3-pyridyl]-17,17-dimethyl-8,14-dioxo-15-oxa-4-thia-9,21,30,31-tetrazahexacyclo[23.3.1.1^2,5.1^9,13.0^19,27.0^21,26]hentriaconta-1 (28),2,5 (31),19,25 (29),26-hexaen-7-yl]-2,3-dimethyl-cyclopropanecarboxamide]
IC50 (AGS cells (KRAS G12D)): 6.9 nM | IC50 [1]: 1.8 nM | IC50 (SW620 cells (KRAS G12V)): 0.3 nM | IC50 (KRAS G12C-BRAF complex): 5.4 nM | IC50 [2]: 0.9 nM | IC50 [3]: 2.6 nM | IC50 [4]: 0.2 nM

CO[C@@H](C)c1ncc(N2CCN3CCCC[C@@H]3C2)cc1-c1c2c3cc(cc4c3n1CCC4)-c1csc(n1)C[C@H](NC(=O)[C@H]1C[C@@H]1c1cccnc1)C(=O)N1CCC[C@H](N1)C(=O)OCC(C)(C)C2 (atropisomer, axis not shown; (M)) [Example 102, (1S,2S)-N-[(7S,13S)-(20M)-20-[5-[(9αR)-1,3,4,6,7,8,9,9a-octahydropyrido[1,2-a]pyrazin-2-yl]-2-[(1S)-1-methoxyethyl]-3-pyridyl]-17,17-dimethyl-8,14-dioxo-15-oxa-4-thia-9,21,30,31-tetrazahexacyclo[23.3.1.1^2,5.1^9,13.0^19,27.0^21,26]hentriaconta-1 (28),2,5 (31),19,25 (29),26-hexaen-7-yl]-2-(3-pyridyl)cyclopropanecarboxamide]
IC50 (AGS cells (KRAS G12D)): 4.9 nM | IC50 [1]: 1.2 nM | IC50 (SW620 cells (KRAS G12V)): 0.4 nM | IC50 (KRAS G12C-BRAF complex): 6.5 nM | IC50 [2]: 1.1 nM | IC50 [3]: 2 nM | IC50 [4]: 0.7 nM

CO[C@@H](C)c1ncc(N2CCN3CCCC[C@@H]3C2)cc1-c1c2c3cc(cc4c3n1CCC4)-c1csc(n1)C[C@H](NC(=O)[C@H]1C[C@@H]1c1cncnc1)C(=O)N1CCC[C@H](N1)C(=O)OCC(C)(C)C2 (atropisomer, axis not shown; (M)) [Example 103, (1S,2S)-N-[(7S,13S)-(20M)-20-[5-[(9αR)-1,3,4,6,7,8,9,9a-octahydropyrido[1,2-a]pyrazin-2-yl]-2-[(1S)-1-methoxyethyl]-3-pyridyl]-17,17-dimethyl-8,14-dioxo-15-oxa-4-thia-9,21,30,31-tetrazahexacyclo[23.3.1.1^2,5.1^9,13.0^19,27.0^21,26]hentriaconta-1 (28),2,5 (31),19,25 (29),26-hexaen-7-yl]-2-pyrimidin-5-yl-cyclopropanecarboxamide]
IC50 (AGS cells (KRAS G12D)): 5.2 nM | IC50 [1]: 1.3 nM | IC50 (SW620 cells (KRAS G12V)): 0.4 nM | IC50 (KRAS G12C-BRAF complex): 6 nM | IC50 [2]: 0.7 nM | IC50 [3]: 2.4 nM | IC50 [4]: 0.7 nM

CO[C@@H](C)c1ncc(N2CCN3CCOC[C@@H]3C2)cc1-c1c2c3cc(cc4c3n1CCC4)-c1csc(n1)C[C@H](NC(=O)[C@H]1C[C@@H]1c1cccnc1)C(=O)N1CCC[C@H](N1)C(=O)OCC(C)(C)C2 (atropisomer, axis not shown; (M)) [Example 104, (1S,2S)-N-[(7S,13S)-(20M)-20-[5-[(9αS)-3,4,6,7,9,9a-hexahydro-1H-pyrazino[2,1-c][1,4]oxazin-8-yl]-2-[(1S)-1-methoxyethyl]-3-pyridyl]-17,17-dimethyl-8,14-dioxo-15-oxa-4-thia-9,21,30,31-tetrazahexacyclo[23.3.1.1^2,5.1^9,13.0^19,27.0^21,26]hentriaconta-1 (28),2,5 (31),19,25 (29),26-hexaen-7-yl]-2-(3-pyridyl)cyclopropanecarboxamide]
IC50 (AGS cells (KRAS G12D)): 3.8 nM | IC50 [1]: 0.8 nM | IC50 (SW620 cells (KRAS G12V)): 0.2 nM | IC50 (KRAS G12C-BRAF complex): 9.8 nM | IC50 [2]: 1 nM | IC50 [3]: 1.6 nM | IC50 [4]: 0.4 nM

CO[C@@H](C)c1ncc(N2CCN3CCOC[C@@H]3C2)cc1-c1c2c3cc(cc4c3n1CCC4)-c1csc(n1)C[C@H](NC(=O)[C@H]1C[C@@H]1c1cncnc1)C(=O)N1CCC[C@H](N1)C(=O)OCC(C)(C)C2 (atropisomer, axis not shown; (M)) [Example 105, (1S,2S)-N-[(7S,13S)-(20M)-20-[5-[(9αS)-3,4,6,7,9,9a-hexahydro-1H-pyrazino[2,1-c][1,4]oxazin-8-yl]-2-[(1S)-1-methoxyethyl]-3-pyridyl]-17,17-dimethyl-8,14-dioxo-15-oxa-4-thia-9,21,30,31-tetrazahexacyclo[23.3.1.1^2,5.1^9,13.0^19,27.0^21,26]hentriaconta-1 (28),2,5 (31),19,25 (29),26-hexaen-7-yl]-2-pyrimidin-5-yl-cyclopropanecarboxamide]
IC50 (AGS cells (KRAS G12D)): 6.8 nM | IC50 [1]: 1.5 nM | IC50 (SW620 cells (KRAS G12V)): 0.6 nM | IC50 (KRAS G12C-BRAF complex): 13.3 nM | IC50 [2]: 1.5 nM | IC50 [3]: 2.2 nM | IC50 [4]: 0.4 nM
